For test [1], the system named is arginine production in plants. Conditions: cited from earlier work.
Another test concerns rice. Description: Greenhouse Rice Test (rice grown in 5-gallon buckets, chlorophyll by SPAD 501 meter and rough rice yield). It counts as in vivo. The note with it: for Average of Chlorophyll Measurements: relative chlorophyll in leaves, SPAD 501 meter. On the procedure: This test was conducted to compare the use of Chip Urea and Black Chip Urea to the use of ordinary granular urea for growing rice. Chip Urea, Black Chip Urea, and plain urea fertilizers were tested at Applied Chemical Technology to fertilize rice grown in 5-gallon buckets in a greenhouse. The rice was fertilized following practices used to grow rice commercially in Arkansas. These practices include fertilizing with starter fertilizers and then dry seeding the rice. Nitrogen is then applied at flooding and again when the plants enter the reproductive phase. The fertilizer is flooded into the soil when the rice plants reach the 4-leaf stage by applying the granular fertilizer to the surface and then the applying the floodwater.
The rice for the tests was grown in a climate controlled greenhouse. […] Each fertilizer was tested with five replicates placed randomly on the table. The codes for labeling the tests are given in Example 5. The bucket placement for the tests is shown in Example 6.
Top soil was purchased from Shoals Dirt near Florence, Ala. This soil was mixed and sieved using a 3 MG screen. Soil samples were taken and sent for testing to the University of Arkansas. Each five gallon bucket was filled with 39 pounds of soil and placed on the greenhouse table with no space between the buckets.
Based on the soil test results, each bucket received pre-fertilizer that included urea, triple super phosphate (TSP), potassium chloride, Epsom salts (magnesium sulfate heptahydrate), and zinc sulfate.
The TSP fertilizer was applied first. This was done by weighing out 3.58 g of TSP for each bucket and then mixing the TSP thoroughly into the top 3-4 inches of soil.
Next, the remaining starter fertilizer was applied to each bucket by making a solution of the urea, potassium chloride, zinc sulfate, and Epson salts according to the values presented in Table A of Example 5. This solution was made so that the amount of the solution needed to supply the correct amount of each nutrient to each bucket was found in 200 mL of the solution. The 200 mL of solution was then evenly poured over the surface of the soil in each bucket.
The pre-fertilizer was applied. The rice was then planted by placing 10-15 seeds on the surface of the soil and using a pencil to push the rice seed ¾ inch beneath the soil surface. The hole was filled with sand. After planting, the soil moisture was monitored. If the buckets needed to be watered, then all of the buckets are watered with the same amount of water by volume. For all of the watering throughout the tests, rain water was used. […]
The fertilizers used were products made at ACT in the pilot plant tests. […] The amounts of each fertilizer were based on the nitrogen measured in the fertilizer by LECO so that every bucket received the same amount of nitrogen. […]

`N#CN` [acid cyanamide ion]: in test [1], the “Effectiveness in stimulating arginine production relative to urea” value is recorded as 20 times.
Consider `NC(N)=O` [Urea, urea], for which the “Average of Chlorophyll Measurements” value with rice (July 19, 30 readings per bucket, five replicates) is 46.8; with rice (September 21 (Friday before harvest)) it was 36.4. Moreover, the “% Increase in Yield” value with rice (average yield per bucket versus plain urea) was determined as 0.0%. Also, in the test on rice (panicles dried at 50° C. for two days, same weight of N per bucket), the “Average Rough Rice Yield per Bucket, Average Dry Weight at Harvest” value is 64.42 g.

The values are drawn from US11407689B2, “Black urea enhanced efficiency controllable release fertilizer compositions” (priority 2018, dated 2022).
